Entries after “also recorded” stand apart in the source; their conditions may differ.
What was measured:
α-glucosidase = α-glucosidase (Saccharomyces cerevisiae, UniProt P53341); experiment: α-Glucosidase inhibition assay (pNPG); type: biochemical; details: at a concentration of 200 μM; for inhibition at 200 µM: read-out: α-glucosidase inhibition rate
Procedure: For this assay, 20 μL of each sample, 20 μL of α-glucosidase solution (0.6 U/mL), and PBS solution (20 μL) were mixed, added to a 96-well plate, and incubated at 37 °C for 10 min, and then, pNPG solution (20 μL) was added and incubation continued for 30 min. At the end of incubation, the reaction was terminated with the addition of 80 μL of NaCO3 (0.2 M). The release of p-nitrophenol was measured by placing the 96-well plate at 405 nm on an enzyme meter (positive control: acarbose). The test was repeated three times for all samples.Inhibition (%) = (1 − A405 sample/A405 control) × 100%.

[1] = tested on: NO release in LPS-induced RAW264.7 macrophages; experiment: Inhibition of NO production induced by LPS in RAW264.7 cells; type: cell-based; details: LPS-induced RAW264.7 cells; for IC50: RAW264.7, 24 h, LPS 2 μg/mL, 24 h
Procedure: (§1) RAW264.7 cells were added to a 96-well plate (100 μL/well) at 1.5 × 10^5 cells/mL and incubated for 24 h (37 °C). The control group, model group, and experimental group were set up, with 4 replicates in each group. After incubation, the supernatant was discarded. The cells in the experimental group were treated with different concentrations of compounds, and each group was incubated with lipopolysaccharides (2 μg/mL) for 24 h (37 °C). According to the steps and requirements of the kit instructions, NO, TNF-α, and IL-6 content was detected.

[2] = ABTS free radical-scavenging assay; details: 6 min reaction, 734 nm
Procedure: In order to explore the antioxidant capacity of compounds 1–7, DPPH and ABTS free radical-scavenging methods were used in this experiment (ascorbic acid as a positive control). During the experimental operation, the antioxidant test method proposed by Zhu et al. was used as a reference. Different concentrations of each compound solution were added to 96-well plates, and then 100 μL of DPPH/ABTS solution was added to each well, and the reaction was performed at room temperature for 30 min (DPPH)/6 min (ABTS). After the reaction, the OD values of each well were measured at 517 nm (DPPH)/734 nm (ABTS) using a microplate reader. Finally, according to the measured OD value, the DPPH and ABTS free radical-scavenging rates of each sample were calculated. In order to ensure the accuracy and reliability of the experimental data, all samples were tested three times.Clearance = [1 − (A sample group − A control group)/A blank group] × 100%

[3] = RAW264.7 cell viability experiment (MTT); details: mouse, RAW264.7 cells
Procedure: (§2) RAW264.7 cells were cultured in DMEM containing 1% penicillin/streptomycin and 10% bovine fetal serum in an incubator (5% CO2, 37 °C).
(§3) RAW264.7 cells in the logarithmic growth phase were taken and adjusted to 1.5 × 10^5 cells/mL. The cells were inoculated in 96-well plates and divided into a control group, a blank group, and an experimental group with different concentrations. Each group had 4 duplicate wells and was incubated for 24 h (37 °C). Different concentrations of compounds (100 μL) were added to 96-well plates, and 100 μL of culture medium was added to the blank group and the control group, respectively, and incubated for 24 h. MTT (5 mg/mL, 10 μL) was incubated for 4 h (37 °C) per well. The OD value was measured at 450 nm using a microplate reader to calculate the cell viability.

TNF-α = experiment: ELISA of TNF-α expression in LPS-stimulated RAW264.7 cells; type: cell-based; details: 50 μM
Procedure: as §1

IL-6 = experiment: ELISA of IL-6 expression in LPS-stimulated RAW264.7 cells; type: cell-based; details: lowest concentration 12.5 μM
Procedure: as §1

RAW264.7 cells = details: 50 µM
Procedure: as §2, §3

[4] = Mus musculus, 50 µM, read-out: NO inhibition rate (%)

α-glucosidase, sequence (P53341 whole entry): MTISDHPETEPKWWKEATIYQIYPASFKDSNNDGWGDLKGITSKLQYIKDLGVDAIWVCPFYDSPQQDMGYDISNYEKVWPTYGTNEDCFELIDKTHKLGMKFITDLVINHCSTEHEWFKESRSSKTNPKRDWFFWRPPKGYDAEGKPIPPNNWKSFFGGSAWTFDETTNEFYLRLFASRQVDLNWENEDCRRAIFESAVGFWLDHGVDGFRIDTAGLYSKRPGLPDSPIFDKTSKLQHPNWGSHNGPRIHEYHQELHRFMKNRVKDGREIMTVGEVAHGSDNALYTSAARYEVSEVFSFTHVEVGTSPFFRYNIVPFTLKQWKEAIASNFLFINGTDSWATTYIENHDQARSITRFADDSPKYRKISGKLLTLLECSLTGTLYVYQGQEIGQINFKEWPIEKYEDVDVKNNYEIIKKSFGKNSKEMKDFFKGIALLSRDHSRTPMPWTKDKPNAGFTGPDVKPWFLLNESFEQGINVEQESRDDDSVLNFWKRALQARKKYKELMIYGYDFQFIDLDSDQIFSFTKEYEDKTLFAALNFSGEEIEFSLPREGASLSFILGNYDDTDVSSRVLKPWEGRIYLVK

Compound	inhibition at 50 µM [1, 4] [%]	IC50 [2] [µM]	viability at 24 h, 50 µM [3] [%]	other results
4-(1-Methoxyethenyl)phenol [Compound 7]				α-glucosidase inhibition rate (α-glucosidase): 41.1%
COC(=O)C1OC(OCC(O)COC(=O)c2cc(OC)c(O)c(OC)c2)C(O)C(O)C1O (stereo not shown) [Compound 1, Roxbubenzoate A]	0	107 ± 1.1	100	
O=C1C[C@H](c2ccc(O)c(O)c2)Oc2cc(O)cc(O)c21 [Compound 2, (-)-eriodictyol]	31.3	142.6 ± 0.8	100	inhibition at 200 µM (α-glucosidase): 50.1%
O=C1c2c(O)cc(O)cc2O[C@H](c2ccc(O)cc2)[C@H]1O [Compound 3, aromadendrin]	92.5		100	effect on TNF-α expression (ELISA) (TNF-α): significant inhibitory activity; IC50 ([1]; Mus musculus): 7.83 ± 2 µM; effect on IL-6 expression (ELISA) (IL-6): strong inhibitory effect; also recorded: dose-dependently suppressed
CC1=C(CC[C@H](C)O[C@H]2O[C@@H](CO)[C@H](O)[C@@H](O)[C@@H]2O)C(C)(C)C=CC1=O [Compound 4, linarionoside A]	6.6		98.8	inhibition at 200 µM (α-glucosidase): 46.7%
S=C(S)N1CCCC1 [PDTC, Pyrrolidine dithiocarbamate, reference compound]				IC50 ([1]; Mus musculus): 3.13 ± 0.3 µM; inhibition at 5 µM ([1]; Mus musculus, 5 µM, positive control, read-out: NO inhibition rate (%)): 69.1%; viability at 24 h, 5 µM [3]: 98.5%
(1R)-4-[(3R)-3-hydroxybutyl]-3,5,5-trimethylcyclohex-3-en-1-ol [Compound 6]		128.3 ± 1.2		Cell viability (%) (RAW264.7 cells): 98.1%; NO inhibition rate (%) ([1]; 50 µM): 0.8%

Reference: paper PMC11818921, “Biological Activities of Constituents from Rosa roxburghii and Their Mechanisms Based on Network Pharmacology and Biological Verification” (International Journal of Molecular Sciences, 2025)
